Results: PMC6627609, “Targeting Quorum Sensing: High-Throughput Screening to Identify Novel LsrK Inhibitors” (International Journal of Molecular Sciences, 2019)
Structures can show the parent of a compound that is named as a salt.

The compounds below were run against LsrK (Salmonella typhimurium, UniProt Q8ZKQ6) (assay: biochemical). Conditions: not given.
Chain of LsrK (Q8ZKQ6 whole entry): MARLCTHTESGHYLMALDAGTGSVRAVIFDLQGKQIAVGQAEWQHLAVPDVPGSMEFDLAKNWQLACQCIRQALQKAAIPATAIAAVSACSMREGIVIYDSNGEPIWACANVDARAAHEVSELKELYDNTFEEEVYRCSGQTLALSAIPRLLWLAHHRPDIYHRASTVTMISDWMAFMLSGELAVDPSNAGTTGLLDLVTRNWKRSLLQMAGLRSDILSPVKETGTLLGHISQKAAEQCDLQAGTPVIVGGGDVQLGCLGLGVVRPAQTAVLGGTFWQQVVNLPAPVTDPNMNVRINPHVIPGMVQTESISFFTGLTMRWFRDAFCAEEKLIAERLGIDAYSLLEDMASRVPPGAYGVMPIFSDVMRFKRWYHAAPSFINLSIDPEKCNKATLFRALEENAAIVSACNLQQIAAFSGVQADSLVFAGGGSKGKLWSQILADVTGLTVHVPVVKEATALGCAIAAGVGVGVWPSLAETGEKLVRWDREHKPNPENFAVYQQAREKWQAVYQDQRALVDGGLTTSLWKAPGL
Assay type: biochemical, S. typhimurium
`CCn1cc(C(=O)O)c(=O)c2cc(F)c(N3CCNCC3)nc21` [ENOXACIN] showed an inhibition at 50 µM of 0%. Compound `CC1(C)[C@@H](O)CC[C@]2(C)[C@H]3C(=O)C=C4[C@@H]5C[C@@](C)(C(=O)O)CC[C@]5(C)CC[C@@]4(C)[C@]3(C)CC[C@@H]12` [ENOXOLONE] has an inhibition at 50 µM of 2%. `CCN1CCN(c2cc3c(cc2F)c(=O)c(C(=O)O)cn3C2CC2)CC1` [ENROFLOXACIN] was tested, and the inhibition at 50 µM was 1%. For `Oc1cc(O)c2c(c1)O[C@H](c1ccc(O)c(O)c1)[C@H](O)C2` [EPICATECHIN], the inhibition at 50 µM was 2%. `Oc1cc(O)c2c(c1)O[C@H](c1cc(O)c(O)c(O)c1)[C@H](O)C2` [EPIGALLOCATECHIN] gave an inhibition at 50 µM of 89%. Compound `C[C@]12CC[C@H]3[C@@H](CCC4=CC(=O)CC[C@@]43C)[C@@H]1CC[C@H]2O` [EPITESTOSTERONE] has an inhibition at 50 µM of 0%. In the case of `C[C@]12CC[C@H]3C(=CCc4cc(O)ccc43)[C@@H]1CCC2=O` [EQUILIN], the inhibition at 50 µM is reported as 1%. With `CC(C)[C@@H](C)/C=C/[C@@H](C)[C@H]1CC[C@H]2C3=CC=C4C[C@@H](O)CC[C@]4(C)[C@H]3CC[C@]12C` [ERGOSTEROL] the inhibition at 50 µM was 0%. With `CN1C[C@H](C(=O)N[C@]2(C)O[C@@]3(O)[C@@H]4CCCN4C(=O)[C@H](Cc4ccccc4)N3C2=O)C=C2c3cccc4[nH]cc(c34)C[C@H]21` [ERGOTAMINE TARTRATE] the inhibition at 50 µM was 2%. `CCC(=O)O[C@H]1[C@H](O[C@@H]2[C@@H](C)[C@H](O[C@H]3C[C@@](C)(OC)[C@@H](O)[C@H](C)O3)[C@@H](C)C(=O)O[C@H](CC)[C@@](C)(O)[C@H](O)[C@@H](C)C(=O)[C@H](C)C[C@@]2(C)O)O[C@H](C)C[C@@H]1N(C)C` [ERYTHROMYCIN ESTOLATE] was tested, and the inhibition at 50 µM was 10%. `CCOC(=O)CCC(=O)O[C@H]1[C@H](O[C@@H]2[C@@H](C)[C@H](O[C@H]3C[C@@](C)(OC)[C@@H](O)[C@H](C)O3)[C@@H](C)C(=O)O[C@H](CC)[C@@](C)(O)[C@H](O)[C@@H](C)C(=O)[C@H](C)C[C@@]2(C)O)O[C@H](C)C[C@@H]1N(C)C` [ERYTHROMYCIN ETHYLSUCCINATE] gave an inhibition at 50 µM of 1%. Work on `CC[C@H]1OC(=O)[C@H](C)[C@@H](O[C@H]2C[C@@](C)(OC)[C@@H](O)[C@H](C)O2)[C@H](C)[C@@H](O[C@@H]2O[C@H](C)C[C@H](N(C)C)[C@H]2O)[C@](C)(O)C[C@@H](C)C(=O)[C@H](C)[C@@H](O)[C@]1(C)O` [ERYTHROMYCIN] yielded an inhibition at 50 µM of 0%. With `CN(C)CCC[C@@]1(c2ccc(F)cc2)OCc2cc(C#N)ccc21` [ESCITALOPRAM OXALATE] the inhibition at 50 µM was 1%. With `C[C@]12CC[C@@H]3c4ccc(O)cc4CC[C@H]3[C@@H]1CC[C@@H]2OC(=O)CCC1CCCC1` [ESTRADIOL CYPIONATE] the inhibition at 50 µM was 0%. Work on `COc1ccc2c(c1)CC[C@@H]1[C@@H]2CC[C@]2(C)[C@@H](O)CC[C@@H]12` [ESTRADIOL METHYL ETHER] yielded an inhibition at 50 µM of 3%. `CCCCC(=O)O[C@H]1CC[C@H]2[C@@H]3CCc4cc(O)ccc4[C@H]3CC[C@]12C` [ESTRADIOL VALERATE] was tested, and the inhibition at 50 µM was 3%. `CCOc1ccc2nc3cc(N)ccc3c(N)c2c1` [ETHACRIDINE LACTATE] showed an inhibition at 50 µM of 1%. `C=C(CC)C(=O)c1ccc(OCC(=O)O)c(Cl)c1Cl` [ETHACRYNIC ACID] gave an inhibition at 50 µM of 85%. Compound `C#C[C@]1(O)CC[C@H]2[C@@H]3CCc4cc(O)ccc4[C@H]3CC[C@@]21C` [ETHINYL ESTRADIOL] has an inhibition at 50 µM of 1%. With `CCC1(C)CC(=O)NC1=O` (stereo not shown) [ETHOSUXIMIDE] the inhibition at 50 µM was 17%. For `CCC(N)C(O)c1ccc(O)c(O)c1` (stereo not shown) [ETHYLNOREPINEPHRINE HYDROCHLORIDE], the inhibition at 50 µM was 4%. `CCOC(=O)c1cncn1[C@H](C)c1ccccc1` [ETOMIDATE] gave an inhibition at 50 µM of 2%. `COc1cc([C@@H]2c3cc4c(cc3[C@@H](O[C@@H]3O[C@@H]5CO[C@@H](C)O[C@H]5[C@H](O)[C@H]3O)[C@H]3COC(=O)[C@H]23)OCO4)cc(OC)c1O` [ETOPOSIDE] gave an inhibition at 50 µM of 1%. `C=C1C[C@@H]2[C@H](CC[C@]3(C)C(=O)CC[C@@H]23)[C@@]2(C)C=CC(=O)C=C12` [EXEMESTANE] was tested, and the inhibition at 50 µM was 11%. For `O=C(O)CCC(=O)c1ccc(-c2ccccc2)cc1` [FENBUFEN], the inhibition at 50 µM was 2%. In the case of `CC(NCCC(c1ccccc1)c1ccccc1)c1ccccc1` (stereo not shown) [FENDILINE HYDROCHLORIDE], the inhibition at 50 µM is reported as 0%. In the case of `CC(C)OC(=O)C(C)(C)Oc1ccc(C(=O)c2ccc(Cl)cc2)cc1` [FENOFIBRATE], the inhibition at 50 µM is reported as 1%. With `CC(C)(C(=O)O)c1ccc(C(O)CCCN2CCC(C(O)(c3ccccc3)c3ccccc3)CC2)cc1` (stereo not shown) [FEXOFENADINE HYDROCHLORIDE] the inhibition at 50 µM was 0%. `CC(C)(C)NC(=O)[C@H]1CC[C@H]2[C@@H]3CC[C@H]4NC(=O)C=C[C@]4(C)[C@H]3CC[C@]12C` [FINASTERIDE] gave an inhibition at 50 µM of 1%. For `O=c1c(O)c(-c2ccc(O)c(O)c2)oc2cc(O)ccc12` [FISETIN], the inhibition at 50 µM was 33%. For `CS(=O)(=O)c1ccc([C@@H](O)[C@@H](CF)NC(=O)C(Cl)Cl)cc1` [FLORFENICOL], the inhibition at 50 µM was 2%. `O=c1[nH]c(=O)n([C@H]2C[C@H](O)[C@@H](CO)O2)cc1F` [FLOXURIDINE] was tested, and the inhibition at 50 µM was 0%. In the case of `Nc1[nH]c(=O)ncc1F` [FLUCYTOSINE], the inhibition at 50 µM is reported as 0%. In the case of `Nc1nc(F)nc2c1ncn2[C@@H]1O[C@H](COP(=O)(O)O)[C@@H](O)[C@@H]1O` [FLUDARABINE PHOSPHATE], the inhibition at 50 µM is reported as 0%. For `CC(=O)OCC(=O)[C@@]1(O)CC[C@H]2[C@@H]3CCC4=CC(=O)CC[C@]4(C)[C@@]3(F)[C@@H](O)C[C@@]21C` [FLUDROCORTISONE ACETATE], the inhibition at 50 µM was 2%. With `O=C(O)c1ccccc1Nc1cccc(C(F)(F)F)c1` [FLUFENAMIC ACID] the inhibition at 50 µM was 62%. Work on `CC(=O)OCC(=O)[C@@]12OC(C)(C)O[C@@H]1C[C@H]1[C@@H]3C[C@H](F)C4=CC(=O)C=C[C@]4(C)[C@@]3(F)[C@@H](O)C[C@@]12C` [FLUOCINONIDE] yielded an inhibition at 50 µM of 3%. `O=C1OC2(c3ccc(O)cc3Oc3cc(O)ccc32)c2ccccc21` [FLUORESCEIN] was tested, and the inhibition at 50 µM was 1%. In the case of `O=c1[nH]cc(F)c(=O)[nH]1` [FLUOROURACIL], the inhibition at 50 µM is reported as 0%. For `CC(C)C(=O)Nc1ccc([N+](=O)[O-])c(C(F)(F)F)c1` [FLUTAMIDE], the inhibition at 50 µM was 2%. In the case of `CC(C)n1c(/C=C/C(O)CC(O)CC(=O)O)c(-c2ccc(F)cc2)c2ccccc21` (stereo not shown) [FLUVASTATIN], the inhibition at 50 µM is reported as 6%. `Nc1nc(=O)c2nc(CNc3ccc(C(=O)N[C@@H](CCC(=O)O)C(=O)O)cc3)cnc2[nH]1` [FOLIC ACID] showed an inhibition at 50 µM of 90%. In the case of `O=C(O)P(=O)(O)O` [FOSCARNET SODIUM], the inhibition at 50 µM is reported as 1%. `C[C@@H]1O[C@@H]1P(=O)(O)O` [FOSFOMYCIN CALCIUM] was tested, and the inhibition at 50 µM was 1%. `O=C(O)c1ccccc1OP(=O)(O)O` [FOSFOSAL] gave an inhibition at 50 µM of 0%. `COc1cc2ccc(=O)oc2c(OC)c1OC` [FRAXIDIN METHYL ETHER] gave an inhibition at 50 µM of 1%. In the case of `C[C@H]1C(=O)CC[C@@H]2[C@]1(C)CC[C@H]1[C@@]2(C)CC[C@@]2(C)[C@@H]3CC(C)(C)CC[C@]3(C)CC[C@]12C` [FRIEDELIN], the inhibition at 50 µM is reported as 1%. Compound `Cc1cccc(C)c1NC(=O)c1ccccc1C(=O)O` [FTAXILIDE] has an inhibition at 50 µM of 4%. `Cc1cc(O)c(C=O)c2c1C(=O)Oc1c(COC(=O)/C=C/C(=O)O)c(O)c(C(=O)O)c(C)c1O2` [FUMARPRO[…]] showed an IC50 of 7 µM and an inhibition at 50 µM of 150%. `O=C1OC(CN2CCOCC2)CN1/N=C/c1ccc([N+](=O)[O-])o1` (stereo not shown) [FURALTADONE] showed an inhibition at 50 µM of 2%. For `CC[N+](CC)(CC)CCOc1cccc(OCC[N+](CC)(CC)CC)c1OCC[N+](CC)(CC)CC` [GALLAMINE TRIETHIODIDE], the inhibition at 50 µM was 1%. `CC(=O)O[C@@H]1C[C@H]2C(C)(C)C(=O)C=C[C@]2(C)[C@H]2CC[C@@]3(C)[C@H](c4ccoc4)OC(=O)[C@H]4O[C@]43[C@@]21C` [GEDUNIN] showed an inhibition at 50 µM of 0%.

Same assay, conditions: 50 µM
`CCC(C)C(=O)O[C@@H]1C[C@@]2(C)[C@H](c3ccoc3)OC(=O)CC23OC2(C)OC34[C@H](OC(=O)C(C)C)[C@@]3(O)[C@@H](OC(=O)C5(C)OC5C)[C@@]5(C)C[C@]3(O)[C@@](C)([C@H]5CC(=O)OC)C14O2` (stereo partly shown) [ENTANDROPHRAGMIN] was tested, and the “Inhibition (%)” value was 1. With `O=C(O[C@@H]1Cc2c(O)cc(O)cc2O[C@@H]1c1ccc(O)c(O)c1)c1cc(O)c(O)c(O)c1` [EPICATECHIN MONOGALLATE] the “Inhibition (%)” value was 86. For `O=C(Oc1cc(O)cc2c1C[C@@H](OC(=O)c1cc(O)c(O)c(O)c1)[C@@H](c1cc(O)c(O)c(O)c1)O2)c1cc(O)c(O)c(O)c1` [EPIGALLOCATECHIN 3.5-DIGALLATE], the “Inhibition (%)” value was 88. In the case of `O=C(O[C@@H]1Cc2c(O)cc(O)cc2O[C@@H]1c1cc(O)c(O)c(O)c1)c1cc(O)c(O)c(O)c1` [EPIGALLOCATECHIN-3-MONOGALLATE], the “Inhibition (%)” value is reported as 87. For `CC(=O)O[C@@H]1CC2C(C)(C)C(=O)C3OC3[C@]2(C)C2CC[C@@]3(C)[C@H](c4ccoc4)OC(=O)C4OC43[C@@]21C` (stereo partly shown) [EPOXYGEDUNIN], the “Inhibition (%)” value was 0. `CC(=O)O[C@H]1CC[C@@]2(C)C(=CC=C3[C@@H]4CC[C@H]([C@H](C)/C=C/[C@H](C)C(C)C)[C@@]4(C)CC[C@@H]32)C1` [ERGOSTEROL ACETATE] was tested, and the “Inhibition (%)” value was 2. `O=C([O-])c1ccccc1-c1c2cc(I)c(=O)c(I)c-2oc2c(I)c([O-])c(I)cc12.[Na+].[Na+]` [ERYTHROSINE SODIUM] was tested, and the “Inhibition (%)” value was 69. With `C[C@]12CCC3c4ccc(OS(=O)(=O)[O-])cc4CCC3C1CC[C@H]2O.[Na+]` (stereo partly shown) [ESTRADIOL-3-SULFATE. SODIUM SALT] the “Inhibition (%)” value was 0. In the case of `CCc1cc(Cl)c(OC)c(C(=O)NC[C@@H]2CCCN2CC)c1O.Cl` [ETICLOPRIDE HYDROCHLORIDE], the “Inhibition (%)” value is reported as 2. In the case of `CC(=O)O[C@H]1CCC2(C)C3=C(CCC2C1(C)C)[C@@]1(C)CC[C@@H](C(C)CCC=C(C)C)[C@]1(C)CC3` (stereo partly shown) [EUPHOL ACETATE], the “Inhibition (%)” value is reported as 1. `CC(=O)O[C@H]1[C@H]2[C@@H](OC(=O)Cc3ccccc3)[C@@H](C)C[C@]2(OC(C)=O)C(=O)/C(C)=C/[C@@H]2[C@H](CC[C@@]13CO3)C2(C)C` [EUPHORBIASTEROID] was tested, and the “Inhibition (%)” value was 1. With `CC[C@H](CC[C@@H](C)[C@H]1CC[C@H]2[C@@H]3CC[C@H]4C[C@@H](O)CC[C@]4(C)[C@H]3CC[C@]12C)C(C)C` [FUCOSTANOL] the “Inhibition (%)” value was 1. In the case of `CCOC(=O)c1ncn2c1CN(C)C(=O)c1cc(F)ccc1-2` [FUMAZENIL], the “Inhibition (%)” value is reported as 0. With `Cl.O=c1[nH]oc2c1CCNC2` [GABOXADOL HYDROCHLORIDE] the “Inhibition (%)” value was 1.
